Reference: US8952024B2, “Herbicidal pyrimidone derivatives” (E I du Pont de Nemours and Company, priority 2009, dated 2015)

What was measured:
Assay type in all cases: in vivo
[1] = system: cocklebur (Xanthium strumarium); test: Test B pre-/postemergence plant response
Outline: (§1)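 Compound in solvent + surfactant applied pre-em (loam/sand) or post-em (plants 2–18 cm, peat medium); greenhouse hold 13–15 days; visual 0–100 control score.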

[2] = system: goosegrass (Eleusine indica); test: Test B pre-/postemergence plant response
Outline: as §1

[3] = system: johnsongrass (Sorghum halepense); test: Test B pre-/postemergence plant response
Outline: as §1

[4] = system: kochia (Kochia scoparia); test: Test B pre-/postemergence plant response
Outline: as §1

[5] = system: pigweed (Amaranthus retroflexus); test: Test B pre-/postemergence plant response
Outline: as §1

[6] = system: ragweed (common ragweed, Ambrosia elatior); test: Test B pre-/postemergence plant response
Outline: as §1

[7] = system: soybean (Glycine max); test: Test B pre-/postemergence plant response
Outline: as §1

[8] = system: velvetleaf (Abutilon theophrasti); test: Test B pre-/postemergence plant response
Outline: as §1

[9] = system: wheat (Triticum aestivum); test: Test B pre-/postemergence plant response
Outline: as §1

[10] = system: wild oat (Avena fatua); test: Test B pre-/postemergence plant response
Outline: as §1

[11] = system: canarygrass (Phalaris minor); test: Test B postemergence plant response
Outline: (§2)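 Plants at the 1- to 4-leaf stage (2 to 18 cm tall), grown in pots of peat moss/vermiculite medium with wetting agent and starter nutrients, received postemergence applications of test chemicals. After 13 to 15 days in a greenhouse, injury was rated visually against untreated controls on a 0 (no effect) to 100 (complete control) scale.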

[12] = system: chickweed (Stellaria media); test: Test B postemergence plant response
Outline: as §2

[13] = system: windgrass (Apera spica-venti); test: Test B postemergence plant response
Outline: as §2

[14] = 31 g ai/ha, postemergence, scale 0 to 100, 0 is no effect, 100 is complete control
[15] = 62 g ai/ha, postemergence, 0 is no effect, 100 is complete control, 13 to 15 days
[16] = 250 g ai/ha, Preemergence, 0 to 100 scale
[17] = Postemergence, 125 g ai/ha, visual rating after 13 to 15 days, scale 0 (no effect) to 100 (complete control)
[18] = Postemergence, 250 g ai/ha, scale 0 to 100 (0 no effect, 100 complete control)
[19] = Preemergence, 31 g ai/ha, scale 0 to 100 (0 no effect, 100 complete control)
[20] = Preemergence, 62 g ai/ha, scale 0 to 100 (0 no effect, 100 complete control)
[21] = Preemergence, 125 g ai/ha, scale 0 to 100, 0 no effect, 100 complete control

CCCc1ncc(C(=O)C2=C(O)CCCC2=O)c(=O)n1-c1ccccc1C [Compound 73]
Plant response rating, Cocklebur [1, 14]: 0
Cocklebur plant response rating (0 to 100 scale) [1, 15]: 45
Plant response rating, Cocklebur [1, 16]: 65
Plant response rating, Cocklebur [1, 17]: 65
Plant response rating, Cocklebur [1, 18]: 80
Plant response rating, Cocklebur [1, 19]: 0
Plant response rating, Cocklebur [1, 20]: 0
Plant response rating, Cocklebur [1, 21]: 60
Plant response rating, Goosegrass [2, 14]: 65
Goosegrass plant response rating (0 to 100 scale) [2, 15]: 75
Plant response rating, Goosegrass [2, 16]: 100
Plant response rating, Goosegrass [2, 17]: 75
Plant response rating, Goosegrass [2, 18]: 80
Plant response rating, Goosegrass [2, 19]: 85
Plant response rating, Goosegrass [2, 20]: 98
Plant response rating, Goosegrass [2, 21]: 100
Plant response rating, Johnsongrass [3, 14]: 10
Johnsongrass plant response rating (0 to 100 scale) [3, 15]: 65
Plant response rating, Johnsongrass [3, 16]: 98
Plant response rating, Johnsongrass [3, 17]: 70
Plant response rating, Johnsongrass [3, 18]: 75
Plant response rating, Johnsongrass [3, 19]: 0
Plant response rating, Johnsongrass [3, 20]: 0
Plant response rating, Johnsongrass [3, 21]: 98
Plant response rating, Kochia [4, 14]: 75
Kochia plant response rating (0 to 100 scale) [4, 15]: 80
Plant response rating, Kochia [4, 16]: 90
Plant response rating, Kochia [4, 17]: 90
Plant response rating, Kochia [4, 18]: 90
Plant response rating, Kochia [4, 19]: 0
Plant response rating, Kochia [4, 21]: 80
Plant response rating, Pigweed [5, 14]: 80
Pigweed plant response rating (0 to 100 scale) [5, 15]: 98
Plant response rating, Pigweed [5, 17]: 100
Plant response rating, Pigweed [5, 18]: 100
Plant response rating, Pigweed [5, 19]: 95
Plant response rating, Pigweed [5, 20]: 100
Plant response rating, Pigweed [5, 21]: 100
Plant response rating, Ragweed [6, 14]: 75
Ragweed plant response rating (0 to 100 scale) [6, 15]: 80
Plant response rating, Ragweed [6, 17]: 85
Plant response rating, Ragweed [6, 18]: 85
Plant response rating, Ragweed [6, 19]: 45
Plant response rating, Ragweed [6, 20]: 60
Plant response rating, Ragweed [6, 21]: 75
Plant response rating, Soybean [7, 14]: 80
Soybean plant response rating (0 to 100 scale) [7, 15]: 85
Plant response rating, Soybean [7, 17]: 90
Plant response rating, Soybean [7, 18]: 95
Plant response rating, Velvetleaf [8, 14]: 95
Velvetleaf plant response rating (0 to 100 scale) [8, 15]: 100
Plant response rating, Velvetleaf [8, 17]: 100
Plant response rating, Velvetleaf [8, 18]: 100
Plant response rating, Velvetleaf [8, 19]: 100
Plant response rating, Velvetleaf [8, 20]: 100
Plant response rating, Velvetleaf [8, 21]: 100
Plant response rating, Wheat [9, 14]: 0
Wheat plant response rating (0 to 100 scale) [9, 15]: 35
Plant response rating, Wheat [9, 17]: 40
Plant response rating, Wheat [9, 18]: 50
Plant response rating, Wheat [9, 19]: 0
Plant response rating, Wheat [9, 20]: 0
Plant response rating, Wheat [9, 21]: 5
Plant response rating, Oat, Wild [10, 14]: 55
Oat, Wild plant response rating (0 to 100 scale) [10, 15]: 80
Plant response rating, Oat, Wild [10, 17]: 80
Plant response rating, Oat, Wild [10, 18]: 95
Plant response rating, Oat, Wild [10, 19]: 0
Plant response rating, Oat, Wild [10, 20]: 0
Plant response rating, Oat, Wild [10, 21]: 0
Plant response rating, Canarygrass [11, 14]: 0
Canarygrass plant response rating (0 to 100 scale) [11, 15]: 0
Plant response rating, Canarygrass [11, 17]: 5
Plant response rating, Canarygrass [11, 18]: 40
Plant response rating, Chickweed [12, 14]: 80
Chickweed plant response rating (0 to 100 scale) [12, 15]: 80
Plant response rating, Chickweed [12, 17]: 95
Plant response rating, Chickweed [12, 18]: 100
Plant response rating, Windgrass [13, 14]: 70
Windgrass plant response rating (0 to 100 scale) [13, 15]: 80
Plant response rating, Windgrass [13, 17]: 90
Plant response rating, Windgrass [13, 18]: 98
